According to US8791108B2, “Inhibitors of human immunodeficiency virus replication” (priority 2011, dated 2014):
Read-outs that look alike come from different tables or passages of the source.

Tested on: recombinant NL-Rluc virus
Experiment: Inhibition of HIV replication (NL-RLuc luciferase reporter virus, MT-2 cells)
Assay type: cell-based
Conditions: Human immunodeficiency virus 1, MT2, 120 h

| SMILES | EC50 (read-out: Activity) | EC50 (read-out: EC50 μM) |
| --- | --- | --- |
| Cc1nc2cc(C(=O)N3CCC(c4ccc(F)cc4)CC3)nn2c(-c2cc(F)c3c(c2C)CCCO3)c1[C@H](OC(C)(C)C)C(=O)O (atropisomer, axis not shown) [Example 138, (S)-2-(tert-Butoxy)-2-((S)-7-(8-fluoro-5-methylchroman-6-yl)-2-(4-(4-fluorophenyl)piperidine-1-carbonyl)-5-methylpyrazolo[1,5-a]pyrimidin-6-yl)acetic acid] | < 0.1 µM |  |
| Cc1cc(CNC(=O)c2cc3nc(C)c(C(OC(C)(C)C)C(=O)O)c(-c4cc(F)c5c(c4C)CCCO5)n3n2)ccc1F (stereo in doubt) [Example 3, (2S)-2-(tert-Butoxy)-2-(2-((4-fluoro-3-methylbenzyl)carbamoyl)-7-(8-fluoro-5-methylchroman-6-yl)-5-methylpyrazolo[1,5-a]pyrimidin-6-yl)acetic acid] | < 0.1 µM | 0.032 µM |
| Cc1nc2cc(C(=O)NCc3ccc(F)cc3-n3ncnc3C)nn2c(-c2cc(F)c3c(c2C)CCCO3)c1C(OC(C)(C)C)C(=O)O (stereo in doubt) [Example 9, (2S)-2-(tert-butoxy)-2-(2-((4-fluoro-2-(5-methyl-1H-1,2,4-triazol-1-yl)benzyl)carbamoyl)-7-(8-fluoro-5-methylchroman-6-yl)-5-methylpyrazolo[1,5-a]pyrimidin-6-yl)acetic acid] | 0.1 to 1 µM |  |
| Cc1nc2cc(C(=O)NCc3ccc(F)cc3)nn2c(-c2cc(F)c3c(c2C)CCCO3)c1[C@H](OC(C)(C)C)C(=O)O [Example 1, (2S)-2-(tert-butoxy)-2-(7-(8-fluoro-5-methylchroman-6-yl)-2-((4-fluorobenzyl)carbamoyl)-5-methylpyrazolo[1,5-a]pyrimidin-6-yl)acetic acid] | < 0.1 µM | 0.053 µM |
| Cc1nc2cc(C(=O)NCC3CCN(C(=O)C(C)C)CC3)nn2c(-c2cc(F)c3c(c2C)CCCO3)c1[C@H](OC(C)(C)C)C(=O)O [Example 2, (2S)-2-(tert-Butoxy)-2-(7-(8-fluoro-5-methylchroman-6-yl)-2-(((1-isobutyrylpiperidin-4-yl)methyl)carbamoyl)-5-methylpyrazolo[1,5-a]pyrimidin-6-yl)acetic acid] | > 1 µM |  |
| Cc1nc2cc(C(=O)NCc3ccccc3)nn2c(-c2cc(F)c3c(c2C)CCCO3)c1[C@H](OC(C)(C)C)C(=O)O [Example 4, (2S)-2-(2-(Benzylcarbamoyl)-7-(8-fluoro-5-methylchroman-6-yl)-5-methylpyrazolo[1,5-a]pyrimidin-6-yl)-2-(tert-butoxy)acetic acid] | < 0.1 µM |  |
| Cc1ccc(CNC(=O)c2cc3nc(C)c([C@H](OC(C)(C)C)C(=O)O)c(-c4cc(F)c5c(c4C)CCCO5)n3n2)cc1 [Example 5, (2S)-2-(tert-butoxy)-2-(7-(8-fluoro-5-methylchroman-6-yl)-5-methyl-2-((4-methylbenzyl)carbamoyl)pyrazolo[1,5-a]pyrimidin-6-yl)acetic acid] | < 0.1 µM |  |
| Cc1cccc(CNC(=O)c2cc3nc(C)c([C@H](OC(C)(C)C)C(=O)O)c(-c4cc(F)c5c(c4C)CCCO5)n3n2)c1 [Example 6] | < 0.1 µM |  |
| Cc1ccccc1CNC(=O)c1cc2nc(C)c([C@H](OC(C)(C)C)C(=O)O)c(-c3cc(F)c4c(c3C)CCCO4)n2n1 [Example 7, (2S)-2-(tert-butoxy)-2-(7-(8-fluoro-5-methylchroman-6-yl)-5-methyl-2-((2-methylbenzyl)carbamoyl)pyrazolo[1,5-a]pyrimidin-6-yl)acetic acid] | < 0.1 µM |  |
| Cc1nc2cc(C(=O)N(C)Cc3ccc(F)cc3)nn2c(-c2cc(F)c3c(c2C)CCCO3)c1[C@H](OC(C)(C)C)C(=O)O [Example 8, (2S)-2-(tert-butoxy)-2-(7-(8-fluoro-5-methylchroman-6-yl)-2-((4-fluorobenzyl)(methyl)carbamoyl)-5-methylpyrazolo[1,5-a]pyrimidin-6-yl)acetic acid] | < 0.1 µM |  |
| Cc1nc2cc(C(=O)NCc3ccc(F)cc3-n3nncc3C)nn2c(-c2cc(F)c3c(c2C)CCCO3)c1[C@H](OC(C)(C)C)C(=O)O [Example 10, (2S)-2-(tert-butoxy)-2-(2-((4-fluoro-2-(5-methyl-1H-1,2,3-triazol-1-yl)benzyl)carbamoyl)-7-(8-fluoro-5-methylchroman-6-yl)-5-methylpyrazolo[1,5-a]pyrimidin-6-yl)acetic acid] | 0.1 to 1 µM |  |
| Cc1nc2cc(C(=O)NCc3ccc(F)cc3-n3cncn3)nn2c(-c2cc(F)c3c(c2C)CCCO3)c1[C@H](OC(C)(C)C)C(=O)O [Example 11, (2S)-2-(tert-butoxy)-2-(2-((4-fluoro-2-(1H-1,2,4-triazol-1-yl)benzyl)carbamoyl)-7-(8-fluoro-5-methylchroman-6-yl)-5-methylpyrazolo[1,5-a]pyrimidin-6-yl)acetic acid] | 0.1 to 1 µM |  |
| Cc1nc2cc(C(=O)NCc3ccc(F)cc3N3CCCC3=O)nn2c(-c2cc(F)c3c(c2C)CCCO3)c1[C@H](OC(C)(C)C)C(=O)O [Example 12, (2S)-2-(tert-butoxy)-2-(2-((4-fluoro-2-(2-oxopyrrolidin-1-yl)benzyl)carbamoyl)-7-(8-fluoro-5-methylchroman-6-yl)-5-methylpyrazolo[1,5-a]pyrimidin-6-yl)acetic acid] | > 1 µM |  |
| Cc1nc2cc(C(=O)NS(=O)(=O)c3ccccc3)nn2c(-c2cc(F)c3c(c2C)CCCO3)c1[C@H](OC(C)(C)C)C(=O)O [Example 13, (2S)-2-(tert-butoxy)-2-(7-(8-fluoro-5-methylchroman-6-yl)-5-methyl-2-((phenylsulfonyl)carbamoyl)pyrazolo[1,5-a]pyrimidin-6-yl)acetic acid] | > 1 µM | 40 µM |
| Cc1nc2cc(C(=O)NS(=O)(=O)Cc3ccccc3)nn2c(-c2cc(F)c3c(c2C)CCCO3)c1[C@H](OC(C)(C)C)C(=O)O [Example 14, (2S)-2-(2-((benzylsulfonyl)carbamoyl)-7-(8-fluoro-5-methylchroman-6-yl)-5-methylpyrazolo[1,5-a]pyrimidin-6-yl)-2-(tert-butoxy)acetic acid] | > 1 µM |  |
| Cc1ccc(NC(=O)c2cc3nc(C)c([C@H](OC(C)(C)C)C(=O)O)c(-c4cc(F)c5c(c4C)CCCO5)n3n2)cc1 [Example 15, (2S)-2-(tert-butoxy)-2-(7-(8-fluoro-5-methylchroman-6-yl)-5-methyl-2-(p-tolylcarbamoyl)pyrazolo[1,5-a]pyrimidin-6-yl)acetic acid] | < 0.1 µM |  |
| Cc1nc2cc(C(=O)NCC3CCCCC3)nn2c(-c2cc(F)c3c(c2C)CCCO3)c1[C@H](OC(C)(C)C)C(=O)O [Example 16, (2S)-2-(tert-butoxy)-2-(2-((cyclohexylmethyl)carbamoyl)-7-(8-fluoro-5-methylchroman-6-yl)-5-methylpyrazolo[1,5-a]pyrimidin-6-yl)acetic acid] | < 0.1 µM |  |
| CON(Cc1ccc(F)cc1)C(=O)c1cc2nc(C)c([C@H](OC(C)(C)C)C(=O)O)c(-c3cc(F)c4c(c3C)CCCO4)n2n1 [Example 17, (2S)-2-(tert-butoxy)-2-(7-(8-fluoro-5-methylchroman-6-yl)-2-((4-fluorobenzyl)(methoxy)carbamoyl)-5-methylpyrazolo[1,5-a]pyrimidin-6-yl)acetic acid] | < 0.1 µM |  |
| Cc1nc2cc(C(=O)NCc3ccc(F)cc3-c3ncnn3C)nn2c(-c2cc(F)c3c(c2C)CCCO3)c1[C@H](OC(C)(C)C)C(=O)O [Example 18, (2S)-2-(tert-butoxy)-2-(2-((4-fluoro-2-(1-methyl-1H-1,2,4-triazol-5-yl)benzyl)carbamoyl)-7-(8-fluoro-5-methylchroman-6-yl)-5-methylpyrazolo[1,5-a]pyrimidin-6-yl)acetic acid] | 0.1 to 1 µM | 0.547 µM |
| Cc1ccccc1CN(C)C(=O)c1cc2nc(C)c([C@H](OC(C)(C)C)C(=O)O)c(-c3cc(F)c4c(c3C)CCCO4)n2n1 [Example 19, (2S)-2-(tert-butoxy)-2-(7-(8-fluoro-5-methylchroman-6-yl)-5-methyl-2-(methyl(2-methylbenzyl)carbamoyl)pyrazolo[1,5-a]pyrimidin-6-yl)acetic acid] | < 0.1 µM |  |
| Cc1cccc(CN(C)C(=O)c2cc3nc(C)c([C@H](OC(C)(C)C)C(=O)O)c(-c4cc(F)c5c(c4C)CCCO5)n3n2)c1 [Example 20, (2S)-2-(tert-butoxy)-2-(7-(8-fluoro-5-methylchroman-6-yl)-5-methyl-2-(methyl(3-methylbenzyl)carbamoyl)pyrazolo[1,5-a]pyrimidin-6-yl)acetic acid] | < 0.1 µM |  |
| CCc1ccc(CN(C)C(=O)c2cc3nc(C)c([C@H](OC(C)(C)C)C(=O)O)c(-c4cc(F)c5c(c4C)CCCO5)n3n2)cc1 [Example 21, (2S)-2-(tert-butoxy)-2-(2-((4-ethylbenzyl)(methyl)carbamoyl)-7-(8-fluoro-5-methylchroman-6-yl)-5-methylpyrazolo[1,5-a]pyrimidin-6-yl)acetic acid] | < 0.1 µM |  |
| Cc1nc2cc(C(=O)N(C)Cc3ccccc3F)nn2c(-c2cc(F)c3c(c2C)CCCO3)c1[C@H](OC(C)(C)C)C(=O)O [Example 22, (2S)-2-(tert-butoxy)-2-(7-(8-fluoro-5-methylchroman-6-yl)-2-((2-fluorobenzyl)(methyl)carbamoyl)-5-methylpyrazolo[1,5-a]pyrimidin-6-yl)acetic acid] | < 0.1 µM |  |
| Cc1nc2cc(C(=O)N(C)Cc3cccc(F)c3)nn2c(-c2cc(F)c3c(c2C)CCCO3)c1[C@H](OC(C)(C)C)C(=O)O [Example 23] | < 0.1 µM |  |
| CCc1cc(CNC(=O)c2cc3nc(C)c([C@H](OC(C)(C)C)C(=O)O)c(-c4cc(F)c5c(c4C)CCCO5)n3n2)ccc1F [Example 24, (2S)-2-(tert-butoxy)-2-(2-((3-ethyl-4-fluorobenzyl)carbamoyl)-7-(8-fluoro-5-methylchroman-6-yl)-5-methylpyrazolo[1,5-a]pyrimidin-6-yl)acetic acid] | < 0.1 µM |  |
| CCCc1cc(CNC(=O)c2cc3nc(C)c([C@H](OC(C)(C)C)C(=O)O)c(-c4cc(F)c5c(c4C)CCCO5)n3n2)ccc1F [Example 25, (2S)-2-(tert-butoxy)-2-(2-((4-fluoro-3-propylbenzyl)carbamoyl)-7-(8-fluoro-5-methylchroman-6-yl)-5-methylpyrazolo[1,5-a]pyrimidin-6-yl)acetic acid] | < 0.1 µM |  |
| Cc1nc2cc(C(=O)NCc3ccc(F)c(C4CC4)c3)nn2c(-c2cc(F)c3c(c2C)CCCO3)c1[C@H](OC(C)(C)C)C(=O)O [Example 26] | < 0.1 µM |  |
